According to patent publication US20240180805A1, “COMPOSITION FOR INHIBITING WRINKLE” (YUKI GOSEI KOGYO CO., LTD., priority 2022, published 2024):

Tested on: hyaluronic acid synthase (HAS2)
Conditions: β-alanine 10 mM added twice, 24 h apart; total 48 h; relative to β-actin (ΔΔCt); FIG. 1

## NCCC(=O)O [β-alanine]
  mRNA of hyaluronic acid synthase in dermal fibroblasts: increased
